The values below come from PubChem BioAssay AID179 (DTP/NCI, 2004).

Where “and” joins values, the source holds several entries; their conditions need not be identical. Identical values can stand only once. Calls of active or inactive are those of the source.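 Rule for the calls: active = compounds giving half or more protection of infected cells from virus-caused growth loss, again on retest; inactive = the rest.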

Usually EC50 stands for the concentration needed to bring the measured effect to its halfway point. As a reminder, the IC50 is the point on the concentration scale where inhibition reaches its midpoint. The low end stands for inhibition by little substance, the high end for a need for much substance.

The assay has as its system CEM cells HIV-1 protection, formazan growth assay. In words: NCI AIDS Antiviral Assay. To be noted: for IC50: measured here: growth of uninfected CEM cells. A digest of the protocol: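 Steps: treat uninfected and HIV-1-infected human CEM cells at five drug levels; quantify growth by soluble formazan; retest any compound reaching 50% protection; classify actives from the retest.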

Consider `Cc1c2ccncc2cc2c1sc1ccncc12`, for which the EC50 was more than 39.8 µM and the IC50 was found to be 0.589 µM.

Consider `COc1ccc(-c2ccccc2)c2[nH]c3c(c12)CCNC3=O`, for which the result was inactive.

As for `Cc1ccc([N+](=O)[O-])c2c(NCCCN(C)C)c3ccccc3nc12`, the EC50 was more than 0.2 µM and the IC50 worked out at 0.0513 µM.

As for `CC(=O)/C(=C/c1ccccc1Br)C(=O)c1ccccc1`, the EC50 is more than 57.5 µM and the IC50 turned out to be 22.4 µM.

For the compound `Clc1ccc(C2=CCN3CC=C(c4ccc(Cl)cc4)C23)cc1`, the EC50 is more than 200 µM and the IC50 came out at 10.7 µM.

In the case of `CCOCCOCCOCc1nc(C#N)c(N)o1`, the EC50 was more than 200 µM and the 50% inhibitory concentration (IC50) is more than 200 µM.

With `c1ccc(NNC2=NCCN2)cc1`, the EC50 was more than 200 µM and the IC50 worked out at 55 µM.

As for `O=[N+]([O-])c1ccc(-c2noc(-c3ccccc3)c2C2=NCCN2)cc1`, the EC50 was more than 15.5 µM and the half-inhibitory concentration (IC50) was more than 15.5 µM.

Take `CC(C)=CC1(C)/C(=N\O)C(C)(CC(C)C)C(=O)N1O` (stereo not given): the EC50 was more than 933 µM and the concentration for half-maximal inhibition (IC50) is more than 933 µM.

Turning to `N#Cc1cc2c(N)ncnc2nc1N1CCCC1`, the EC50 is more than 200 µM and the half-inhibitory concentration (IC50) amounted to 191 µM.

For `OCCSCCCSCCO`, the EC50 is more than 95.5 µM and the IC50 is 72.4 µM.

For the compound `COc1cc(C2c3cc4c(cc3OC(NNc3ccccc3)C2C)OCO4)cc(OC)c1O` (stereo not given), the outcome was inactive.

In the case of `COc1cc2c(c3oc(=O)cc(C)c13)[C@@H](OC(=O)C13CCC(C)(C(=O)O1)C3(C)C)[C@@H](OC(=O)C13CCC(C)(C(=O)O1)C3(C)C)C(C)(C)O2` (stereo not given in full), the EC50 was 0.324 µM and the IC50 is more than 200 µM.

Turning to `COc1ccc(C2OC(c3ccncc3)=NN2C)cc1F` (stereo not given), the EC50 was more than 200 µM and the IC50 is more than 100 µM.

On to `CN(C)c1ccc(N=Nc2ccc(/C=C/c3ccnc4ccccc34)cc2)cc1`, for which the EC50 was more than 19.1 µM and the 50% inhibitory concentration (IC50) is more than 19.1 µM.

On to `COc1ccc(CC#C/C=C/C(=O)NCC(C)C)cc1`, for which the EC50 was more than 95.5 µM and the IC50 came to 14.1 µM.

Take `COc1c2occc2c(CN)c2ccc(=O)oc12`: the EC50 was more than 316 µM and the IC50 amounted to 42.7 µM.

As for `CC(=O)NCCCCN(CCCNC(C)=O)C(=O)CNS(=O)(=O)c1cccc2c(N(C)C)cccc12`, the EC50 is more than 200 µM and the concentration for half-maximal inhibition (IC50) was more than 200 µM.

As to `Cc1cccc(C(C)(C)C)c1NC(=O)CCc1nc(=S)[nH][nH]1`, the EC50 was more than 562 µM and the IC50 amounted to 240 µM.

Regarding `Nc1ccc(C(=O)NN2C(=O)C(Cl)C2c2cc(Br)cc(Br)c2O)cc1` (stereo not given), the EC50 is more than 200 µM and the IC50 turned out to be 15.5 µM.

For `Cc1cc(C)cc(N(C2C3CCC(C)(C2O)C3(C)C)S(=O)(=O)c2ccccc2)c1` (stereo not given), the EC50 was more than 200 µM and the IC50 was determined as 24.5 µM.

As for `COC(=O)C12CC3CC(C1)CC(C(=O)OC)(C3)C2`, the EC50 is more than 513 µM and the IC50 is 363 µM.

Consider `Cc1cn(C2CC(N=[N+]=[N-])C(COP(=O)(OCC(=O)C(C)(C)C)OCC(=O)C(C)(C)C)O2)c(=O)[nH]c1=O` (stereo not given), for which the concentration giving a half-maximal response (EC50) is 0.0011 µM and the concentration for half-maximal inhibition (IC50) amounted to 2 µM.

`COc1cc(/C=C/C2=C(C#N)C(=O)OC2(C)C)ccc1O`: the EC50 is more than 126 µM and the IC50 was more than 126 µM.

Consider `N#C/C(=C\c1ccc(O)c(O)c1)C(=O)c1ccc(O)c(O)c1`, for which the EC50 was more than 200 µM and the IC50 was found to be 51.3 µM.

`CCCCCCCCCCCCCCCCOC1OC(CSSCC2OC(OCCCCCCCCCCCCCCCC)C(O)C(O)C2O)C(O)C(O)C1O` (stereo not given): the EC50 was 5.25 µM and the IC50 was 6.03 µM.

As for `[Cl][Ho]([Cl])[Cl]`, the EC50 is more than 162 µM and the IC50 is more than 162 µM.

As to `CCc1cccc(C)c1NC(=O)NS(=O)(=O)c1ccc(C)cc1`, the EC50 was more than 759 µM and the concentration for half-maximal inhibition (IC50) is more than 759 µM.

`CC(NNC(=S)N1CCN(c2ccccn2)CC1)c1cccc[n+]1[O-]` (stereo not given): the EC50 is more than 67.6 µM and the IC50 stood at 0.195 µM.

Consider `CC(=O)C(CN(C(C)C)C(C)C)C(c1ccccc1)c1c(O)c2ccccc2oc1=O` (stereo not given), for which the EC50 is more than 85.1 µM and the half-inhibitory concentration (IC50) amounted to 75.9 µM.

As for `CCOC(=O)C1(Cc2ccccc2)SCCCS1`, the EC50 is more than 91.2 µM and the half-inhibitory concentration (IC50) was more than 91.2 µM.

For `CC1NC(=O)c2c(-c3ccccc3)nn(-c3ccccc3)c2NC1=O` (stereo not given), the EC50 is more than 200 µM and the concentration for half-maximal inhibition (IC50) is more than 200 µM.

In the case of `OC12c3ccccc3C1CCCCCCCCCC21OCCO1` (stereo not given), the outcome was inactive.

In the case of `O=[N+]([O-])C1=C(c2ccccc2)SC(Br)=C(c2ccccc2)S1`, the EC50 is more than 100 µM and the IC50 was determined as 0.813 µM.

Regarding `O=C(O)C/C=C(\C(=O)O)N1C(=O)c2ccccc2C1=O`, the outcome was inactive.

Take `O=C(Nc1ccc(/C=C/c2ccc(NC(=O)c3cc(S(=O)(=O)O)ccc3O)cc2S(=O)(=O)O)c(S(=O)(=O)O)c1)c1cc(S(=O)(=O)O)ccc1O`: the EC50 is 93.3 µM and the IC50 was more than 200 µM.

For the compound `N#Cc1nc(/C=C/c2cccs2)oc1N`, the EC50 was more than 200 µM and the IC50 was 107 µM.

Turning to `O=[N+]([O-])c1ncn(S(=O)(=O)c2cccc3cccnc23)n1`, the EC50 was more than 200 µM and the IC50 is more than 200 µM.

For the compound `COc1ccc2c(c1)CCC1C(=O)NN=C21` (stereo not given), the EC50 was more than 776 µM and the IC50 was more than 776 µM.

`Cc1cn([C@H]2C[C@@H](N3C(=O)c4ccccc4C3=O)[C@@H](CO[Si](C)(C)C(C)(C)C)O2)c(=O)[nH]c1=O`: the EC50 was more than 200 µM and the IC50 was 151 µM.

As for `N#CC1CC(c2ccccc2)Nc2cc(Cl)ccc2N1` (stereo not given), the EC50 was more than 47.9 µM and the IC50 stood at 6.92 µM.

For `O=c1ccn(Cc2ccccc2)c(=S)[nH]1`, the EC50 was more than 200 µM and the half-inhibitory concentration (IC50) is more than 200 µM.

With `CCOP(=O)(OCC)C1(O)CC(n2cc(C)c(=O)[nH]c2=O)OC1CO` (stereo not given), the EC50 is more than 200 µM and the half-maximal inhibitory concentration (IC50) was more than 200 µM.

With `O=C(Nc1ccccc1[N+](=O)[O-])C(=O)C(C(=O)c1ccccc1-c1ccccc1)C1OC(=O)c2ccccc21` (stereo not given), the EC50 is more than 50.1 µM and the IC50 stood at 25.7 µM.

For the compound `Cc1ccc(-c2cc(=O)c3cc(C)c(C)c(C(=O)O)c3o2)cc1N`, the result was inactive.

In the case of `Cc1ccc(S(=O)(=O)N2CCCCC2)cc1`, the EC50 was more than 200 µM and the IC50 is 72.4 µM.

Consider `CC(=O)N(C(C)=O)c1c(C)cc(-c2cccs2)oc1=O`, for which the EC50 was more than 200 µM and the IC50 was more than 100 µM.

With `N#CC1=C(N)N(c2ccccc2)C(=S)N2CCCCCCCC12` (stereo not given), the EC50 is more than 200 µM and the concentration for half-maximal inhibition (IC50) is 186 µM.

Consider `CC(O)C1(CNc2cc(Cl)nc(N)n2)CCC1` (stereo not given), for which the EC50 was more than 200 µM and the IC50 worked out at 182 µM.

Take `COC1OC2=CCC3C(=O)N(c4ccccc4)C(=O)C3C2[C@H](OCc2ccccc2)C1OCc1ccccc1` (stereo not given in full): the result was inactive.

Regarding `COc1ccc(/C(C#N)=C/c2ccc(OC)c(OC)c2)cc1`, the EC50 was more than 200 µM; the IC50 was 64.6 µM and > 33.9 µM.

Take `NNC(=S)NC1CC(c2ccccc2)Oc2ccccc21` (stereo not given): the result was inactive.

As for `CCOC(=O)C=C1CCC2(CC1)OCCO2`, the EC50 was more than 251 µM and the IC50 was more than 251 µM.

On to `CCCc1onc(CCC(=O)N(Cc2ccccc2)Cc2ccccc2)c1CC`, for which the outcome was inactive.

`CC(C)(C)N/N=C(\C(=O)Nc1nc(=S)[nH][nH]1)C1C(=O)Nc2ccccc2S1=O` (stereo not given): the result was inactive.

Consider `C[C@H](N)C(=O)N[C@@H]1[C@H]2C(=C(O)C[C@@H](O)[C@@H]2O)C(=O)O[C@]1(C)C(Cl)Cl`, for which the EC50 is more than 67.6 µM and the 50% inhibitory concentration (IC50) was found to be 0.224 µM.

`C=C(C)[C@H]1C2=CC(C(=O)OC)=C(C[C@H](C(=C)C)[C@@H](O)[C@@H](O)C3=C[C@H]1OC3=O)O2`: the EC50 is more than 200 µM and the IC50 was 93.3 µM.

For `OCC1OC(OC[C@H](COCc2ccccc2)OCc2ccccc2)C(O)C(O)C1O` (stereo not given in full), the EC50 was more than 35.5 µM and the IC50 is more than 35.5 µM.

As to `COc1ccc(C(=C(c2ccc(OC)cc2)c2ccc(OC)cc2)c2ccc(OC)cc2)cc1`, the EC50 is more than 100 µM and the IC50 is 46.8 µM.

Consider `O=c1[nH]cc(S)c(=O)[nH]1`, for which the EC50 is 151 µM and the half-maximal inhibitory concentration (IC50) was more than 200 µM.

Consider `O=C(/C=C(\Nc1ccccc1O)c1ccccc1)C(=O)NC12CC3CC(CC(C3)C1)C2`, for which the EC50 was more than 200 µM and the IC50 is more than 200 µM.

Regarding `CC(C)(N=NC(C)(C)C(=N)N)C(=N)N`, the EC50 was more than 200 µM and the half-maximal inhibitory concentration (IC50) was more than 200 µM.

Turning to `COC(=O)c1ccccc1C1CN=NC12Cc1cc(C)cc(C)c1C2=O` (stereo not given), the result was inactive.

On to `Nc1nc2c(ncn2C2CC(CO)C(CO)C2)c(=O)[nH]1` (stereo not given), for which the EC50 is more than 224 µM and the IC50 was more than 224 µM.

As to `O=C(OC1Cc2c(O)cc(O)cc2OC1c1ccc(O)c(O)c1)c1cc(O)c(O)c(O)c1` (stereo not given), the EC50 is more than 56.2 µM and the half-maximal inhibitory concentration (IC50) is 49 µM.

For the compound `C=C1CN(S(=O)(=O)c2ccc(C)cc2)CCCN(CC2CC2)CCCN(S(=O)(=O)c2ccc(C)cc2)C1`, the EC50 was more than 200 µM and the IC50 came to 4.27 µM.

As for `CC(=O)N1C(C(=O)NNc2ccccc2)CSC1c1ccccc1` (stereo not given), the EC50 was more than 200 µM and the IC50 is 12.3 µM.

As to `COc1c(-c2ccc(F)cc2)oc2c(CC(=O)O)cccc2c1=O`, the EC50 was more than 200 µM and the IC50 was found to be 162 µM.

With `CCCCCCCCCCCOCCC1C(C(C)OCCN2CCCC2)OC2OC(C)(C)OC21` (stereo not given), the EC50 was more than 200 µM and the IC50 turned out to be 9.12 µM.

Consider `CC1=C(C(=O)Nc2ccc([N+](=O)[O-])cc2)C(c2ccco2)C(C(=O)Nc2ccc([N+](=O)[O-])cc2)=C(C)N1`, for which the EC50 is more than 19.5 µM and the half-inhibitory concentration (IC50) turned out to be 11 µM.

For the compound `Cn1c(=O)c2c(nc(N)n2C2OC(CO)C(O)C2O)n(C)c1=O` (stereo not given), the EC50 was more than 200 µM and the IC50 is more than 200 µM.

As to `O=c1n(Cc2ccccc2)c2ccccc2n1CC1CS1` (stereo not given), the EC50 was more than 45.7 µM and the IC50 turned out to be 19.5 µM.

As for `C[N+]12CCC34c5ccccc5NC3C3C(CC(=O)[O-])OCC=C(C1)C3CC42` (stereo not given), the outcome was inactive.
